Patent US20190151340A1, “POLYMERIC NAN[…]” (priority 2017, published 2019)

Experiments:
[1] = test system: human tumor xenograft models; conditions: Albanell and Adams 2002; cited from earlier work
[2] = Comparative toxicity in wild-type mice (body weight, lethality); format: in vivo, CD1 wild type mice
Procedure: The effect of nanoparticles in mitigating the toxicity of bortezomib was examined in wild-type mice. Different doses of bortezomib alone (1.5, 3, 6, 9 and 12 mg/kg) or bortezomib-nanoparticles (NP) (0.9, 1.8, 3.6, 5.4 and 7.2 mg/kg) were injected into CD1 wild type. Three mice were used in each group of bortezomib alone and bortezomib-NP groups, body weights, food and water uptake were measured every day for 22 days.

[3] = test system: relapsed and refractory multiple myeloma; conditions: Richardson et al. 2003, Phase 2; cited from earlier work

For `CC(C)C[C@H](NC(=O)[C@H](Cc1ccccc1)NC(=O)c1cnccn1)B(O)O` [bortezomib, N-2-pyrazinecarbonyl-L-phenylalanine-L-leucineboronic acid], the antitumor activity [1] is listed as “significant antitumor activity”, the survival ([2]; 6 mg/kg dose) is listed as “two” and the survival ([2]; 9 mg/kg dose) is listed as “died after Day 1”. The effectiveness in patients [3] was “effectiveness in treating relapsed and refractory multiple myeloma”.
